# Source: patent US20260263400A1, “COMPOUND COMPOSITION INCLUDING TRANEXAMIC ACID AND TRETINOIN” (Nanjing Indetek Laboratory Co., Ltd., priority 2023, published 2026)
# Entries after “also recorded” stand apart in the source; their conditions may differ.
# Test system: Guinea pig, Hartley-Dunkin
compound,measurement,setting,value
"O=[N+]([O-])c1ccc(Cl)c([N+](=O)[O-])c1 [1-Chloro-2,4-dinitrobenzene]",body weight compared with the negative control group,"D15, D31, D38",male animals showed slow weight gain; also recorded: female animals showed no significant difference in body weight
same,incidence of allergic reaction,after challenge,100%
